# Data reported in PMC7340446, “Optimization of PTH/PTHrP Hybrid Peptides to Derive a Long‐Acting PTH Analog (LA‐PTH)” (JBMR Plus, 2020).
# Where no end group is shown, it is not given here.
# What was measured:
# TPTX rats = settings: orally available agonist; cited from earlier work
# Source text: The low solubility observed for M‐PTH/PTHrP and related analogs containing the C‐terminal PTHrP(15–36) sequence when prepared at high concentrations in aqueous neutral buffer led us to explore amino acid substitutions that would improve solubility yet preserve activity on the PTHR1. […] The resulting analog, [Ala^1,3,12,18,22,Gln^10,Arg^11,Trp^14,Lys^26]‐PTH(1‐14)/PTHrP(15–36), ...
# [1] = Pharmacokinetics in normal rats, i.v., plasma peptide by ELISA; type: in vivo, rat; settings: i.v. 10 nmol/kg, plasma with protease inhibitors, n = 4 (M‐PTH/PTHrP) or 3 (PTH(1–34))
# Description: For pharmacokinetic studies, plasma samples were prepared in the presence of protease inhibitors (aprotinin, leupeptin, EDTA). Plasma levels of PTH(1–34) were assessed by ELISA assay (Human PTH(1–34) Specific ELISA Kit; Immutopics Inc, San Clemente, CA, USA), and plasma levels of M‐PTH/PTHrP were assessed by ELISA assay (PTH‐RP 1–34 Human Enzyme Immunoassay Kit; Peninsula Laboratories International, San Carlos CA, USA) using M‐PTH/PTHrP peptides as standard solutions.
# Figure 3 Pharmacodynamic and pharmacokinetic profiles of M‐PTH/PTHrP and PTH(1–34) in rats. (A) Effects of M‐PTH/PTHrP and PTH(1–34) on blood ionized Ca in TPTX rats by i.v. injection. M‐PTH/PTHrP and PTH(1–34) were injected intravenously in TPTX rats at the indicated doses, and blood samples were collected from the tail vein measured for ionized Ca; data are means ± SE; n = 5 or 3 (PTH(1–34)). *p < 0.05, **p < 0.01, ***p < 0.005 M‐PTH/PTHrP or PTH(1–34) versus TPTX‐vehicle. […] M‐PTH/PTHrP and PTH(1–34) each at a dose of 10 nmol/kg were i.v. administered, and blood samples were collected from the jugular vein in the presence of proteinase inhibitors (Aprotinin, Leupeptin, and EDTA) and the plasma samples were assessed for peptide concentration using a hPTHrP(1–34)‐targeted EIA for M‐PTH/PTHrP and an hPTH(1–34)‐targeted ELISA for PTH(1–34). […]
# [2] = tested on: thyroparathyroidectomized (TPTX) rats; assay: Repeated daily administration in TPTX rats (11‐day treatment, 12‐day study); type: in vivo, rat
# Description: TPTX rats were injected i.v. or s.c. with vehicle or vehicle containing a PTH peptide, or orally treated once daily with vehicle (medium‐chain triglyceride; Chugai Pharma Manufacturing, Tokyo, Japan) or vehicle containing alfacalcidol (Chugai Pharma Manufacturing) for 11 days. Blood samples were obtained from the tail or jugular vein immediately before and at times after injection. Urine samples at 0 to 8 hours or 8 to 24 hours, were collected in metabolic cages. sCa and uCa, serum inorganic phosphorus (sPi) and urinary phosphorus (uPi), and creatinine (uCre) were measured with an automatic analyzer (7180; Hitachi, Ltd, Chiyoda, Tokyo, Japan). Urinary deoxypyridinoline (uDpD) was measured using a Metra DPD EIA kit (DS Pharma Biomedical, Osaka, Japan), and the data were normalized to the uCre concentrations. Serum FGF23 was measured using FGF23 ELISA assay (Immunodiagnostik AG, Bensheim, Germany). Serum 1,25‐dihydroxyvitamin D [1,25(OH)2D3] levels were determined by a ELISA immunoassay (Immunodiagnostic System Ltd, Bolden, UK).
# Figure 4 Effects of 11‐day treatment (12‐day study) with M‐PTH/PTHrP or alfacalcidol on serum calcium (sCa) in thyroparathyroidectomized (TPTX) rats. TPTX rats were treated for 11 days with daily s.c. injection of either vehicle or M‐PTH/PTHrP, or with daily oral alfacalcidol at the indicated doses, and sham‐surgery control rats were s.c. injected daily with vehicle. The levels of Ca in serum and urine were assessed. Blood samples were collected from the jugular vein at 8 hours (A) and at 24 hours (B) after the last treatment administration, and assessed for total sCa. Total urine was collected in metabolic cages over the time intervals of 0 to 8 hours (C), and 8 to 24 hours (D) and assessed for total urinary Ca. Data are means ± SEM; n = 6 or 5 (2.0 and 4.0 nmol/kg of M‐PTH/PTHrP); *p < 0.05 M‐PTH/PTHrP versus TPTX‐vehicle; #p < 0.05 TPTX vehicle versus sham.
# Supplementary file JBM4-4-e10367-s001.pdf: Figure S1 PTH ligand‐induced cAMP‐signaling responses in GP‐2.3 cells Time course of the cAMP‐dependent luminescence response measured at 2‐minute intervals in the presence of each ligand at 10 nM (Ligand on‐phase) and B) Time course of the cAMP‐dependent luminescence response measured at 2‐minute intervals after washout of unbound ligand (Ligand wash‐out phase). GP‐2.3 cells preloaded with luciferin were treated with a concentration of PTH ligand at a concentration of 10 nM for 30 min, and cAMP‐dependent luminescence was measured at two‐minute intervals (ligand‐on phase). The cells were then removed from the plate reader, rinsed twice with media to remove unbound ligand, and then fresh media containing luciferin but lacking ligand was added and luminescence was assessed for additional 90 min (Ligand wash‐out phase). Data are means (± SEM) of four experiments, each performed in triplicate. Figure S2. In vivo calcemic actions of M‐PTH/PTHrP hybrid analogs in normal rats. The indicated M‐PTH/PTHrP hybrid analogs (sequences are shown in Figure 1) along with PTH(1–34) and PTHrP(1–36) controls, were administered at the indicated doses by i.v. injection, and at the indicated time points blood was collected from the tail vein and measured for ionized calcium (Ca^2+). Panels A‐C represent three separate experiments. Data are means ± SEM; n = 6 or 4 (80 nmol/kg of M‐PTH(1‐11)/PTHrP(12–36), M‐PTH(1‐14)/PTHrP(12–36), M‐PTH(1‐17)/PTHrP(18–36) and 1.25 nmol/kg of M‐PTH(1–30)/PTHrP(31–36)). *p < 0.05 versus Vehicle. Figure S3. Effects of 11 days treatment (12 days study) of M‐PTH/PTHrP on serum 1,25(OH) 2 Vitamin‐D3, urinary deoxypyridinoline (Dpd) and serum FGF23 in TPTX rats. Serum and urine samples obtained from the TPTX and sham control rats of the two‐week daily‐administration experiment shown in Figure 4 were analyzed by ELISA for the indicated markers. A) serum 1,25(OH)2Vitamin‐D3. B) urinary deoxypyridinoline (DpD)/Cre. C) serum FGF23. […]
# [3] = Peptide solubility in aqueous buffers of neutral pH; type: physicochemical; settings: lyophilized peptide reconstituted at 1.5 mg/cc in PBS pH 7.4 or 10‐mM acetic acid, 24 hours room temperature, centrifuged, supernatant by BCA protein assay; versus M‐PTH(1‐14)/PTHrP(15‐36)
# [4] = tested on: amino‐terminal ECD portion of the PTH receptor; settings: cited from earlier work
# Source text: In this study, we systematically explored a series of hybrid molecules composed of PTH and PTHrP.
molecule,measurement,setting,value
Cc1cc(N2C(=O)NC(=O)C2(C)C)cc(C)c1CCS(=O)(=O)N1CCC2(CC1)N=C(c1ccc(OC(F)(F)F)cc1)NC2=O [PCO371],Effect on sCa and sPi levels,TPTX rats,restore sCa and lower sPi levels
"CC[C@H](C)[C@H](NC(=O)[C@H](CCC(=O)O)NC(=O)[C@H](CO)NC(=O)[C@@H](NC(=O)[C@@H](N)CO)C(C)C)C(=O)N[C@@H](CCC(N)=O)C(=O)N[C@@H](CC(C)C)C(=O)N[C@@H](CCSC)C(=O)N[C@@H](Cc1cnc[nH]1)C(=O)N[C@@H](CC(N)=O)C(=O)N[C@@H](CC(C)C)C(=O)NCC(=O)N[C@@H](CCCCN)C(=O)N[C@@H](Cc1cnc[nH]1)C(=O)N[C@@H](CC(C)C)C(=O)N[C@@H](CC(N)=O)C(=O)N[C@@H](CO)C(=O)N[C@@H](CCSC)C(=O)N[C@@H](CCC(=O)O)C(=O)N[C@@H](CCCN=C(N)N)C(=O)N[C@H](C(=O)N[C@@H](CCC(=O)O)C(=O)N[C@@H](Cc1c[nH]c2ccccc12)C(=O)N[C@@H](CC(C)C)C(=O)N[C@@H](CCCN=C(N)N)C(=O)N[C@@H](CCCCN)C(=O)N[C@@H](CCCCN)C(=O)N[C@@H](CC(C)C)C(=O)N[C@@H](CCC(N)=O)C(=O)N[C@@H](CC(=O)O)C(=O)N[C@H](C(=O)N[C@@H](Cc1cnc[nH]1)C(=O)N[C@@H](CC(N)=O)C(=O)N[C@@H](Cc1ccccc1)C(=O)O)C(C)C)C(C)C [PTH(1‐34), reference compound]",Time by which plasma concentration declined to the lowest detection level,[1],≤ 60 min
"C=C1/C(=C\C=C2/CCC[C@]3(C)[C@@H]([C@H](C)CCCC(C)C)CC[C@@H]23)C[C@@H](O)C[C@@H]1O [alfacalcidol, 1α‐hydroxycholecalciferol]",Serum levels of FGF23,"[2]; M‐PTH/PTHrP at 4.0 and 8.0 nmol/kg s.c., alfacalcidol at 0.2 μg/kg oral, daily, ELISA",significantly increased
same,sCa levels,[2]; daily oral 0.2 μg/kg,comparable to those of the sham group
same,uCa excretion,"[2]; daily oral 0.2 μg/kg, 0‐ to 8‐ and 8‐ to 24‐hour intervals",high uCa excretion levels
same,sPi levels,"[2]; daily oral, especially at the 0.2 μg/kg dose",normalized sPi levels
"AVAEIQLMHQRAKWIQDARRRAFLHKLIAEIHTAEI [LA‐PTH, [Ala^1,3,12,Gln^10,Arg^11,Trp^14]PTH(1‐14)/[Ala^18,22,Lys^26]PTHrP(15‐36)COOH]",Peptide solubility in PBS relative to 10 mM acetic acid,[3],improved peptide solubility
"PTHrP(15–36): C‐terminal PTHrP fragment binding the receptor ECD (IQDLRRRFFLHHLIAEIHTAEI; Parathyroid hormone-related protein; UniProt P12272 51-72, looked up, fragment)",Affinity for the ECD relative to the PTH(15–34) fragment,[4],approximately twofold higher affinity
